Source: US9556231B2, “Beta-hairpin peptidomimetics as CXC4 antagonists” (POLYPHOR AG, priority 2011, dated 2017)
Where two headings read alike, the source gives them in different places. Bridge positions count the residues as written; N and C are the ends. Square brackets hold non-standard residues; d marks the D form. Peptide text beside a SMILES is read from it. Lys(iPr) = CC(C)NCCCC[C@H](N)C(=O)O; Orn(iPr) = CC(C)NCCC[C@H](N)C(=O)O; Dab = NCC[C@H](N)C(=O)O

Columns and labels:
[1] = Cytotoxicity, MTT reduction assay, HELA cells; type: cell-based; conditions: human
Procedure: Namalwa cells (CXCR4 natively expressing non-adherent cells, ATCC CRL-1432) were cultured in RPMI1640 plus 10% FBS, and pen/strept. HELA cells were maintained in RPMI1640 plus 10% FBS, pen/strept and 2 mM L-glutamine. Cos-7 cells were grown in DMEM medium with […] glucose supplemented with 10% FCS, pen/strept and 2 mM L-glutamine. All cell lines were grown at 37° C. at 5% CO2. Cell media, media supplements, PBS-buffer, HEPES, antibiotic/antimycotic, pen/strept, non essential amino acid, L-glutamine, β-mercaptoethanol and sera were purchased from Gibco (Pailsey, UK). All fine chemicals were supplied by Merck (Darmstadt, Germany).
The cytotoxicity of the peptides to HELA cells (Acc57) and COS-7 cells (CRL-1651) was determined using the MTT reduction assay (T. Mossman, J. Immunol. Meth. 1983, 65, 55-63; M. V. Berridge, A. S. Tan, Arch. Biochem. Biophys. 1993, 303, 474-482). Briefly, the method was as follows: 4000 HELA cells/well and 3400 COS-7 cells/well were seeded and grown in 96-well microtiter plates for 24 h at 37° C. at 5% CO2. Thereafter, time zero (Tz) was determined by MTT reduction (see below). The supernatant of the remaining wells was discarded, and fresh medium and compounds in serial dilutions (12.5, 25 and 50 μM, triplicates; 0 μM, blank) were pipetted into the wells. After incubation of the cells for 48 h at 37° C. at 5% CO2 the supernatant was discarded again and 100 μL MTT reagent (0.5 mg/mL in RPMI1640 and DMEM, respectively)/well was added. Following incubation at 37° C. for 2-4 h the media were aspirated and the cells were spiked (100 μL isopropanol/well). The absorbance of the solubilized formazan was measured at 595 nm (OD595peptide). For each concentration averages were calculated from triplicates. The percentage of growth was calculated as follows: (OD595peptide−OD595Tz)/(OD595blank−OD595Tz)×100%. The GI50 (Growth Inhibition) concentrations were calculated for each peptide by using a trend line function for the concentrations (50, 25, 12.5 and 0 μM), the corresponding percentages and the value 50, (=TREND (C50:C0,%50:%0,50).

[2] = Plasma protein binding; type: in vitro ADME; conditions: for fraction unbound: human, plasma; for fraction unbound at 1 h, 10 μM: human plasma
Procedure: 495 μL aliquots of human plasma (Basler Blutspendedienst) as well as 495 μL aliquots of PBS were placed in individual deepwells of a polypropylene plate (Greiner) and spiked each with 5 μL of 1 mM solutions of peptides in 90% DMSO. After shaking the plate for 2 min at 600 rpm 150 μL aliquots of the plasma/peptide mixtures were transferred in triplicates to the polypropylene filter plate (10 kDa, Millipore) whereas 150 μL aliquots of the PBS/peptide mixtures were transferred either to the individual wells of the filter plate (filtered controls) or directly into the individual wells of the receiving plate (Greiner) (non-filtered controls). The plate sandwich consisting of filter and receiving plate was incubated for 1 h at 37° C. and subsequently centrifuged at 3220 g for 2 h at 15° C. The filtrates in the receiving plate were analysed by LC/MS as follows: Column: Waters, XBridge C18, mobile phases: (A) water+0.1% formic acid and (B) acetonitrile/water, 95/5 (v/v)+0.1% formic acid, gradient: 5%-100% (B) in 1.8 min, electrospray ionization, MRM detection (triple quadrupole). The peak areas were determined and triplicate values are averaged. The binding is expressed in percent of the filtered and non-filtered controls by 100−(100×T1h/Tctr). Finally the average of these values is calculated.

[3] = tested on: HSC mobilization; assay: HSC mobilization in mouse, dose-response study (CFU-C assay); type: in vivo; conditions: C57Bl/6 mice, 5 mg/kg i.p., at time of maximum mobilization (Ex. 1 4 h, Ex. 2 2 h)
Procedure: For the compounds of Ex. 1 and Ex. 2 a HSC mobilization study was performed consisting of a time-response study to assess the time of maximum mobilization after dosing and a subsequent dose-response study.
Male C57Bl/6 mice (Janvier, France; n=5 per dose group for Ex. 1, n=3 per dose group for Ex. 2) received bolus i.p. injections of Ex. 1 and Ex. 2, respectively, at doses of 0.5, 1.5, 5 and 15 mg/kg (compound dissolved in 10 μL of water per g mouse weight containing 0.9% NaCl). Blood was collected as described above at the time of maximum mobilization for Ex. 1 (4 h) and Ex. 2 (2 h), respectively.
CFU-C counts were determined by culturing aliquots of lysed peripheral blood in standard semi-solid progenitor cell culture medium. In brief, a defined amount of blood was washed with PBS buffer (Gibco®) containing 0.5% bovine serum albumin, followed by red blood cell lysis in hypotonic NH4Cl buffer (Sigma) and a second wash step. The cell pellet was resuspended in DMEM (Gibco®) containing 10% FCS, suspended in 2 mL of commercially available, cytokine-replete methylcellulose medium for murine cells (Cell Systems, USA), and plated in duplicate into 35 mm cell culture dishes. CFU-C were scored after 7-8 days incubation under standard conditions (20% O2, saturated humidity, 5% CO2, 37° C.). Peripheral blood cellularity was analyzed using an automated blood count machine (Drew Scientific). […]

[4] = ultrafiltration 10 kDa, read-out: Plasma protein binding (converted)
[5] = MTT, 48 h, up to 50 μM, read-out: Cytotoxicity Hela Cells GI50

With `CC(C)NCCCC[C@@H]1NC(=O)[C@H](CCC(N)=O)NC(=O)[C@H](Cc2ccc(O)cc2)NC(=O)[C@@H]2CSSC[C@H](NC(=O)[C@H](Cc3ccc(O)cc3)NC(=O)[C@H](Cc3c[nH]cn3)NC(=O)[C@H](Cc3ccc(O)cc3)NC(=O)[C@@H]3CCCN3C(=O)[C@H]3CCCN3C1=O)C(=O)N[C@@H](CO)C(=O)N[C@@H](C)C(=O)N1CCC[C@@H]1C(=O)N[C@@H](CCCNC(C)C)C(=O)N[C@@H](CCCNC(=N)N)C(=O)N[C@@H](Cc1ccc(O)cc1)C(=O)N2` [Ex. 1, cyclo(-Tyr^1-His^2-Tyr^3-Cys^4-Ser^5-Ala^6-^DPro^7-Orn(iPr)^8-Arg^9-Tyr^10-Cys^11-Tyr^12-Gln^13-Lys(iPr)^14-^DPro^15-Pro^16-) disulfide bond between Cys^4 and Cys^11] (cyclo(YHYCSA[dP][Orn(iPr)]RYCYQ[Lys(iPr)][dP]P); disulfide 4-11) the GI50 at 48 h [1] was > 50 µM, the fraction unbound ([2]; read-out: Fraction unbound, fu) was 0.7 and the fraction unbound [2, 4] was 0.7.
For `COc1ccc(C[C@H]2NC(=O)[C@H](C)NC(=O)[C@H](CO)NC(=O)[C@@H]3CSSC[C@H](NC(=O)[C@H](Cc4ccc(O)cc4)NC(=O)[C@H](CCCNC(=N)N)NC(=O)[C@H](CCCNC(C)C)NC2=O)C(=O)N[C@@H](Cc2ccc(O)cc2)C(=O)N[C@@H](CCC(N)=O)C(=O)N[C@@H](CCCCNC(C)C)C(=O)N2CCC[C@@H]2C(=O)N2CCC[C@H]2C(=O)N[C@@H](Cc2ccc(O)cc2)C(=O)N[C@@H](Cc2c[nH]cn2)C(=O)N[C@@H](C)C(=O)N3)cc1` [Ex. 4, cyclo(-Tyr^1-His^2-Ala^3-Cys^4-Ser^5-Ala^6-^DTyr(Me)^7-Orn(iPr)^8-Arg^9-Tyr^10-Cys^11-Tyr^12-Gln^13-Lys(iPr)^14-^DPro^15-Pro^16-), disulfide bond between Cys^4 and Cys^11] (cyclo(YHACSA[dY](Me)[Orn(iPr)]RYCYQ[Lys(iPr)][dP]P); disulfide 4-11), the GI50 at 48 h [1] was > 50 µM, the fraction unbound ([2]; read-out: Fraction unbound, fu) was 0.44 and the fraction unbound [2, 4] was 0.44.
With `COc1ccc(C[C@@H]2NC(=O)[C@H](Cc3c[nH]cn3)NC(=O)[C@H](Cc3ccc(O)cc3)NC(=O)[C@@H]3CCCN3C(=O)[C@H]3CCCN3C(=O)[C@H](CCCCNC(C)C)NC(=O)[C@H](CCC(N)=O)NC(=O)[C@H](Cc3ccc(O)cc3)NC(=O)[C@@H]3CSSC[C@H](NC2=O)C(=O)N[C@@H](CO)C(=O)N[C@@H](C)C(=O)N2CCC[C@@H]2C(=O)N[C@@H](CCCNC(C)C)C(=O)N[C@@H](CCCNC(=N)N)C(=O)N[C@@H](Cc2ccc(O)cc2)C(=O)N3)cc1` [Ex. 2, cyclo(-Tyr^1-His^2-Tyr(Me)^3-Cys^4-Ser^5-Ala^6-^DPro^7-Orn(iPr)^8-Arg^9-Tyr^10-Cys^11-Tyr^12-Gln^13-Lys(iPr)^14-^DPro^15-Pro^16-), disulfide bond between Cys^4 and Cys^11] (cyclo(YHY(Me)CSA[dP][Orn(iPr)]RYCYQ[Lys(iPr)][dP]P); disulfide 4-11) the “CFU/mL ± SD” value [3] was 2894 CFU/mL, the GI50 at 48 h [1] was > 41 µM and the fraction unbound ([2]; read-out: Fraction unbound, fu) was 0.52. The fraction unbound [2, 4] was 0.52.
In the case of `COc1ccc(C[C@@H]2NC(=O)[C@H](Cc3c[nH]cn3)NC(=O)[C@H](Cc3ccc(O)cc3)NC(=O)[C@@H]3CCCN3C(=O)[C@H]3CCCN3C(=O)[C@H](CCCCNC(C)C)NC(=O)[C@H](CCC(N)=O)NC(=O)[C@H](Cc3ccc(O)cc3)NC(=O)[C@@H]3CSSC[C@H](NC2=O)C(=O)N[C@@H](CO)C(=O)N[C@@H](C)C(=O)N[C@H](Cc2ccc(OC)cc2)C(=O)N[C@@H](CCCNC(C)C)C(=O)N[C@@H](CCCNC(=N)N)C(=O)N[C@@H](Cc2ccc(O)cc2)C(=O)N3)cc1` [Ex. 6, cyclo(-Tyr^1-His^2-Tyr(Me)^3-Cys^4-Ser^5-Ala^6-^DTyr(Me)^7-Orn(iPr)^8-Arg^9-Tyr^10-Cys^11-Tyr^12-Gln^13-Lys(iPr)^14-^DPro^15-Pro^16-), disulfide bond between Cys^4 and Cys^11] (cyclo(YHY(Me)CSA[dY](Me)[Orn(iPr)]RYCYQ[Lys(iPr)][dP]P); disulfide 4-11), the GI50 at 48 h [1, 5] is reported as > 50 µM and the fraction unbound at 1 h, 10 μM ([2]; ultrafiltration 10 kDa) is reported as 0.37.
For `CC(C)NCCCC[C@@H]1NC(=O)[C@H](CCC(N)=O)NC(=O)[C@H](Cc2ccc(O)cc2)NC(=O)[C@@H]2CSSC[C@H](NC(=O)[C@H](Cc3ccc(O)cc3)NC(=O)[C@H](Cc3c[nH]cn3)NC(=O)[C@H](Cc3ccc(O)cc3)NC(=O)[C@@H]3CCCN3C(=O)[C@H]3CCCN3C1=O)C(=O)N[C@@H](CO)C(=O)N[C@@H](C)C(=O)N[C@H](Cc1ccc(O)cc1)C(=O)N[C@@H](CCCNC(C)C)C(=O)N[C@@H](CCCNC(=N)N)C(=O)N[C@@H](Cc1ccc(O)cc1)C(=O)N2` [Ex. 5, cyclo(-Tyr^1-His^2-Tyr^3-Cys^4-Ser^5-Ala^6-^DTyr^7-Orn(iPr)^8-Arg^9-Tyr^10-Cys^11-Tyr^12-Gln^13-Lys(iPr)^14-^DPro^15-Pro^16-), disulfide bond between Cys^4 and Cys^11] (cyclo(YHYCSA[dY][Orn(iPr)]RYCYQ[Lys(iPr)][dP]P); disulfide 4-11), the GI50 at 48 h [1, 5] was > 50 µM and the fraction unbound at 1 h, 10 μM ([2]; ultrafiltration 10 kDa) was 0.46.
With `CC(C)NCCCC[C@@H]1NC(=O)[C@H](CCC(N)=O)NC(=O)[C@H](Cc2ccc(O)cc2)NC(=O)[C@@H]2CSSC[C@H](NC(=O)[C@H](C)NC(=O)[C@H](Cc3c[nH]cn3)NC(=O)[C@H](Cc3ccc(O)cc3)NC(=O)[C@@H]3CCCN3C(=O)[C@H]3CCCN3C1=O)C(=O)N[C@@H](CO)C(=O)N[C@@H](C)C(=O)N[C@H](Cc1ccc(O)cc1)C(=O)N[C@@H](CCN)C(=O)N[C@@H](CCCNC(=N)N)C(=O)N[C@@H](Cc1ccc(O)cc1)C(=O)N2` [Ex. 3, cyclo(-Tyr^1-His^2-Ala^3-Cys^4-Ser^5-Ala^6-^DTyr^7-Dab^8-Arg^9-Tyr^10-Cys^11-Tyr^12-Gln^13-Lys(iPr)^14-^DPro^15-Pro^16-), disulfide bond between Cys^4 and Cys^11] (cyclo(YHACSA[dY][Dab]RYCYQ[Lys(iPr)][dP]P); disulfide 4-11) the GI50 at 48 h [1, 5] was > 50 µM and the fraction unbound at 1 h, 10 μM ([2]; ultrafiltration 10 kDa) was 0.52.
